Legend:
[1] = system: patients with cerebellar ataxia; settings: cited from earlier work
[2] = system: CD68 positive activated microglia; test: CD68 positive activated microglia in cerebellum of Npc1−/− mice; assay type: in vivo; settings: 59 days of age, compared to Npc1−/− UT
Text: (§1) FIG. 46 is an image showing cerebellar Purkinje cell loss progressing from anterior to posterior lobes and microglial activation in untreated Npc1^−/− mice and Npc1^−/− mice treated with ADLL, ALL, and ADL. Cerebellums were stained with calbindin-b (Purkinje cells) or CD68 (activated microglia).
FIG. 48 is a scatter graph showing frequency of CD68 positive activated microglia at 59 days of age in untreated Npc1^−/− mice and Npc1^−/− mice treated with ADLL, ALL, and ADL. CD68 cell density was measured in the cerebellum. n=5 animals per group. Mean±SD, *** p<0.0009 (one-way ANOVA).
(§2) The combination of increased survival of neurons and a less inflammatory environment in the brain could improve brain function, quality of life, and delay the progression of disease in human subjects.

[3] = system: patients with Niemann-Pick Type C (NPC); settings: one-month study, 12 patients; cited from earlier work
[4] = system: LC3-II; settings: WO 2018/029658; cited from earlier work
[5] = system: cerebellar Purkinje cells; test: Purkinje cell survival in Npc1−/− mice; assay type: in vivo
Text: as §1
FIG. 47 is a scatter graph showing Purkinje cell survival at 59 days of age in untreated Npc1^−/− mice and Npc1^−/− mice treated with ADLL, ALL, and ADL.
as §2

[6] = system: rat primary cortical neurons (NE and NG cultures); test: Truncated tau and neuronal markers in neuron-enriched and neuron-glia cultures; assay type: cell-based; settings: for tolerability (levels of synaptophysin and βIII-tubulin vs untreated control): NE and NG cultures, 1 mM, five days (DIV 9-14); for reduction of basal levels of truncated tau: NG cultures at DIV14, 1 mM, five days
Procedure: FIG. 20 is eight Western blots of tau (5E2), synaptophysin and βIII-tubulin in rat primary cortical neurons (neuron-enriched (NE) and neuron-glia (NG) cultures) in the absence and presence of ADLL, ALL, ADL, DLL, LL, DL, and LLE (1 mM, 5 days).
The efficacy of ADLL, ALL, ADL, DLL, LL, DL, and LLE in reducing truncated tau levels in neuron-glia (NG) cultures was investigated. The results of this study are provided in FIGS. 20-24 One aim of this study was to determine whether ADLL, ALL, ADL, DLL, LL, DL, and LLE conferred intrinsic neuroprotection by sustaining neuronal function under conditions of cellular overgrowth, or whether they acted indirectly through the non-autonomous modulation of glial cells. Irrespective of whether the compounds acted directly or indirectly on neurons, preventing the generation of truncated tau confers beneficial effects to neuronal integrity.
Cultures were treated for five days (DIV 9-14) with 1 mM of ADLL, ALL, ADL, DLL, LL, DL, or LLE, and were subsequently assessed for a number of neuron-specific markers that could provide a readout on neuronal health: βIII-tubulin, full-length tau, truncated tau (antibody 5E2) and synaptophysin. ADLL, ALL, ADL, DLL, LL, DL, and LLE were well-tolerated in NE and NG cultures, as evidenced by consistently equal levels of synaptophysin and βIII-tubulin detected across untreated (control) and drug-treated samples (FIGS. 20, 23, and 24). None of ADLL, ALL, ADL, DLL, LL, DL, and LLE reduced basal levels of truncated tau in NG cultures at DIV14 (FIG. 20 and FIG. 22).

[7] = system: traumatic brain injury patient; test: Case report: patient with traumatic brain injury given acetyl-DL-leucine; assay type: in vivo, human; settings: TBI patient
Procedure: A patient suffering from traumatic brain injury was administered acetyl-DL-leucine at a dose of 3 g per day for the first week, followed by a dose of 5 g per day.

[8] = system: patients with ataxia; settings: in responders; cited from earlier work
[9] = system: rat primary cortical neurons; test: U18666A-mediated impairment of lysosomal fusion in rat primary cortical neurons; assay type: cell-based; settings: for CTF-6 and -7 (endosomal-lysosomal fusion) / LC3-II levels: co-treated with U18666A (2 μg/mL) and compound 1 mM
Procedure: (§3) FIG. 18. is a histogram of the ratio of LC3-II normalised to βIII tubulin (expressed as a percentage of untreated (n=1)) in rat primary cortical neurons that were treated with U18666A (2 μg/ml, 24 hr) in the absence or presence of ADLL, ALL, ADL, DLL, LL, DL, and LLE (1 mM, 24 hr).
as §3, with “19” for “18.”, “is” for “is a”, “APP-CTFs-6 and -7” for “LC3-II”, “their respective CTFs in untreated cells” for “βIII tubulin”, “(n=1)” for “(n=1))”
The efficacy of ADLL, ALL, ADL, DLL, LL, DL, and LLE in alleviating the U18666A-mediated impairment of autophagosome-lysosome fusion and endosomal lysosomal fusion was investigated. In this cell-based assay of impaired EAL flux, the reappearance of basal levels of APP CTFs-6 and -7, provided an indication of improved endosomal-lysosomal fusion.
Neurons were co-treated with U18666A (2 μg/mL) along with ADLL, ALL, ADL, DLL, LL, DL, and LLE (1 mM, 24 h).

[10] = system: LC3-II and APP-CTFs; test: EAL flux in NPC1 mice (cerebellum LC3-II and APP-CTFs); assay type: in vivo, mouse; settings: treated 3 weeks; for restoring autophagic flux with respect to reducing LC3-II levels: relative to untreated NPC1
Text: FIG. 14 is a histogram of the ratio of LC3-II expression to βIII-tubulin in the cerebellum of mouse NPC1 brains at 9-12 weeks of age treated with ADLL, ALL, ADL, DLL, LL, DL, LLE, and miglustat (miglu.) for 3 weeks relative to untreated NPC1 cerebellum (n=4, mean±S.E.M).
FIG. 15 is a histogram of the ratio of APP-CTFs: full-length APP expression in the cerebellum of mouse NPC1 brains at 9-12 weeks of age treated with ADLL, ALL, ADL, DLL, LL, DL, LLE, and miglustat (miglu.) for 3 weeks relative to untreated NPC1 cerebellum (n=4, mean±S.E.M).
FIG. 16 is a histogram of the ratio of APP-CTF-6: full-length APP expression in the cerebellum of mouse NPC1 brains at 9-12 weeks of age treated with ADLL, ALL, ADL, DLL, LL, DL, and LLE for 3 weeks relative to untreated NPC1 cerebellum.
FIG. 17 is a histogram of the ratio of APP-CTF-7: full-length APP expression in the cerebellum of mouse NPC1 brains at 9-12 weeks of age treated with ADLL, ALL, ADL, DLL, LL, DL, and LLE for 3 weeks relative to untreated NPC1 cerebellum (n=4, mean±S.E.M).
The efficacy of ADLL, ALL, ADL, DLL, LL, DL, and LLE in alleviating the impairment of EAL flux in NPC1 mice was investigated. […] Without wishing to be bound by any particular theory, it is possible that ADL and LLE reduced autophagic vacuole (AV) build-up by inhibiting autophagosome formation, possibly through the activation mTORC1. […] Also, acetyl L-leucine (ALL), acetyl D-leucine (ADL) and L-leucine (LL) reduced CTF-7 expression, indicating some improvement in lysosomal proteolysis (FIG. 17).

[11] = 59 days of age, relative to untreated Npc1−/− littermates

In the case of `CC(=O)NC(CC(C)C)C(=O)O` (racemic) [ADLL, acetyl-DL-leucine], the “benefit, another case series (Pelz et al. 2015)” value ([1]; cerebellar patients) is listed as “did not find benefit”, the “cerebellar ataxia symptoms, case series (Strupp et al. 2013)” value ([1]; cerebellar patients) is listed as “symptomatic improvement” and the “temporal gait variability (quantitative gait analysis)” value ([1]; patients with cerebellar ataxia) is listed as “improved”. The “impact on frequency of CD68 positive activated microglia” value [2] was “did not have an impact”, the “ataxia symptoms in NPC patients” value [3] was “symptomatic improvement of ataxia” and the “LC3-II in NPC1 mouse brain” value [4] was “lowering of LC3-II”. For the same molecule, the “more Purkinje cells in lobule III” value [5, 11] was 402%, the “more Purkinje cells present in lobules I and II” value [5, 11] was 133% and the “tolerability (levels of synaptophysin and βIII-tubulin vs untreated control)” value [6] was “well-tolerated”. The “reduction of basal levels of truncated tau” value (“reduction … of truncated tau” for short) [6] was “None”, the “behaviour / level of activity after treatment” value ([7]; 3 g per day first week, then 5 g per day) was “more active behaviour” and the “level of activity after medication was stopped” value ([7]; medication stopped) was “returned to its original level”. For the same molecule, the “metabolism in the midbrain and lower brainstem (PET)” value [8] was “increased metabolism”, the “CTF-6 and -7 (endosomal-lysosomal fusion)” value ([9]; 24 h) was “reappearance of basal amounts” and the LC3-II levels ([9]; 24 h) was “lower than the basal levels”. For the same molecule, the “reduction in APP-CTFs, particularly CTF-6 and -7” value [10] was “not accompanied by a concomitant reduction” and the “restoring autophagic flux with respect to reducing LC3-II levels” value [10] was “effective in restoring autophagic flux”.

With `CC(C)CC(N)C(=O)O` (racemic) [DLL, DL-leucine] the “tolerability (levels of synaptophysin and βIII-tubulin vs untreated control)” value [6] was “well-tolerated”, the “reduction … of truncated tau” value [6] was “None” and the “CTF-6 and -7 (endosomal-lysosomal fusion)” value ([9]; 24 h) was “reappearance of basal amounts”.

With `CC(=O)N[C@H](CC(C)C)C(=O)O` [ADL, acetyl-D-leucine] the “impact on frequency of CD68 positive activated microglia” value [2] was “did not have an impact”, the “Purkinje cell survival in any cerebellar lobules” value ([5]; 59 days of age, compared to Npc1−/− UT) was “did not improve” and the long-term neuroprotective effects ([5]; Npc1−/− mice) was “did not mediate any”. The “tolerability (levels of synaptophysin and βIII-tubulin vs untreated control)” value [6] was “well-tolerated”, the “reduction … of truncated tau” value [6] was “None” and the “CTF-6 and -7 (endosomal-lysosomal fusion)” value ([9]; 24 h) was “reappearance of basal amounts”. For the same molecule, the LC3-II levels ([9]; 24 h) was “lower than the basal levels” and the “CTF-7 expression / clearance” value [10] was “reduced”.

For `CC(C)C[C@@H](N)C(=O)O` [DL, D-leucine], the “tolerability (levels of synaptophysin and βIII-tubulin vs untreated control)” value [6] was “well-tolerated”, the “reduction … of truncated tau” value [6] was “None” and the “CTF-6 and -7 (endosomal-lysosomal fusion)” value ([9]; 24 h) was “reappearance of basal amounts”. For the same molecule, the “CTF-7 expression / clearance” value [10] was “positive effects”.

With `CC(C)C[C@H](N)C(=O)O` [LL, L-leucine] the “tolerability (levels of synaptophysin and βIII-tubulin vs untreated control)” value [6] was “well-tolerated”, the “reduction … of truncated tau” value [6] was “None” and the “CTF-6 and -7 (endosomal-lysosomal fusion)” value ([9]; 24 h) was “reappearance of basal amounts”. For the same molecule, the CTF-6 accumulation [10] was “did reduce” and the “CTF-7 expression / clearance” value [10] was “reduced”.

With `CCOC(=O)[C@@H](N)CC(C)C` [LLE, L-leucine ethyl ester] the “tolerability (levels of synaptophysin and βIII-tubulin vs untreated control)” value [6] was “well-tolerated”, the “reduction … of truncated tau” value [6] was “None” and the “CTF-6 and -7 (endosomal-lysosomal fusion)” value ([9]; 24 h) was “reappearance of basal amounts”. For the same molecule, the “reduction in APP-CTFs, particularly CTF-6 and -7” value [10] was “not accompanied by a concomitant reduction” and the “restoring autophagic flux with respect to reducing LC3-II levels” value [10] was “effective in restoring autophagic flux”.

For `CCN(CC)CCO[C@H]1CC[C@@]2(C)C(=CC[C@@H]3[C@@H]2CC[C@]2(C)C(=O)CC[C@@H]32)C1` [U18666A, reference compound], the “CTFs-6 and 7” value ([9]; U18666A alone 2 μg/mL, 24 hr, DIV14) was “complete absence” and the LC3-II accumulation ([9]; U18666A alone, 24 h) was “did not cause an increase”.

— patent US20220142959A1, “LEUCINE, ACETYL LEUCINE, AND RELATED ANALOGS FOR TREATING DISEASE” (priority 2019, published 2022)
